Read-outs that look alike come from different tables or passages of the source. Values belong to the molecule of their own block, whether it stands above or below them.
Legend:
[1] = tested on: differentiated human THP-1 cells; test: stimulated release of TNF-α from differentiated human THP-1 cells (ELISA, dose-response); format: cell-based
Summary of the method: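 Human THP-1 cells were PMA-differentiated toward macrophages, and stimulated TNF-α release was measured by ELISA. EC50 values were taken from dose-response curves.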

[2] = tested on: mouse macrophages; test: stimulated release of TNF-α from mouse macrophages; format: cell-based
Summary of the method: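 EC50 derived from dose-response curves for stimulated TNF-α release from mouse macrophages.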

[3] = Homo sapiens, THP-1, table of 125-132 (one lipid side chain, R and S), human THP-1 cells, read-out: EC50 (nM) (THP-1)
[4] = Macrophage, table of 125-132 (one lipid side chain, R and S), mouse macrophages, read-out: EC50 (nM) (mouse)
[5] = Homo sapiens, THP-1, Table 3, TNF-α release from human THP-1 cells, read-out: EC50 (nM) (THP-1)
[6] = Macrophage, Table 3, TNF-α release from mouse macrophages, read-out: EC50 (nM) (mouse)
[7] = Homo sapiens, THP-1, Table 7, TNF-α release from human THP-1 cells, read-out: EC50 (nM) (THP-1)
[8] = Macrophage, Table 7, TNF-α release from mouse macrophages, read-out: EC50 (nM) (mouse)
[9] = Homo sapiens, THP-1, Scheme 1, footnote a, read-out: EC50 TNF-α release from human THP-1 cells
[10] = Mus musculus, Macrophage, Scheme 1, footnote b, read-out: EC50 TNF-α release from mouse macrophages

Compound: CCCCCCCCCCCCNC(=O)[C@@H]1CN(C(=O)c2ccc(C(=O)N3C[C@@H](C(=O)N[C@H]4C[C@@H]4c4ccccc4)[C@H](C(=O)N[C@H]4C[C@@H]4c4ccccc4)C3)cc2)C[C@H]1C(=O)NCCCCCCCCCCCC [Compound 135, (3S,4S)-1-(4-((3S,4S)-3,4-Bis(((1S,2R)-2-phenylcyclopropyl)carbamoyl)pyrrolidine-1-carbonyl)benzoyl)-N^3,N^4-didodecylpyrrolidine-3,4-dicarboxamide]
EC50 ([1]; Homo sapiens, THP-1, table of 133-139 (two lipid side chains), human THP-1 cells, read-out: EC50 (nM) (THP-1)): 1 nM
EC50 ([2]; Macrophage, table of 133-139 (two lipid side chains), mouse macrophages, read-out: EC50 (nM) (mouse)): 1000 nM

Compound: CCCCCCCCCCCCNC(=O)[C@H]1CCN(C(=O)c2ccc(C(=O)N3C[C@@H](C(=O)N[C@H]4C[C@@H]4c4ccccc4)[C@H](C(=O)N[C@H]4C[C@@H]4c4ccccc4)C3)cc2)C1 [Compound 131, (3S,4S)-1-(4-((S)-3-(Dodecylcarbamoyl)-pyrrolidine-1-carbonyl)benzoyl)—N^3,N^4-bis((1S,2R)-2-phenylcyclopropyl)pyrrolidine-3,4-dicarboxamide]
EC50 [1, 3]: 4 nM
EC50 [2, 4]: 1000 nM

Compound: COc1cc(C(=O)N2C[C@@H](C(=O)N[C@H]3C[C@@H]3c3ccccc3)[C@H](C(=O)N[C@H]3C[C@@H]3c3ccccc3)C2)ccc1C(=O)N1C[C@@H](C(=O)N[C@H]2C[C@@H]2c2ccccc2)[C@H](C(=O)N[C@H]2C[C@@H]2c2ccccc2)C1 [Compound 57, (3S,3′S,4S,4′S)-1,1′-(2-Methoxy-terephthaloyl)-bis(N^3,N^4-bis((1S,2R)-2-phenylcyclopropyl)-pyrrolidine-3,4-dicarboxamide)]
EC50 [1, 5]: 30 nM
EC50 [2, 6]: 250 nM

Compound: O=C(N[C@H]1C[C@@H]1c1ccccc1)[C@@H]1CN(C(=O)c2ccc(C(=O)N3C[C@@H](C(=O)N[C@H]4C[C@@H]4c4ccccc4)[C@H](C(=O)N[C@H]4C[C@@H]4c4ccccc4)C3)c([N+](=O)[O-])c2)C[C@H]1C(=O)N[C@H]1C[C@@H]1c1ccccc1 [Compound 54, (3S,3′S,4S,4′S)-1,1′-(2-Nitroterephthaloyl)-bis(N^3,N^4-bis((1S,2R)-2-phenylcyclopropyl)pyrrolidine-3,4-dicarboxamide)]
EC50 [1, 5]: 20 nM
EC50 [2, 6]: > 5000 nM

Compound: O=C(N[C@H]1C[C@@H]1c1ccccc1)[C@@H]1CN(C(=O)[C@H]2CC[C@@H](C(=O)N3C[C@@H](C(=O)N[C@H]4C[C@@H]4c4ccccc4)[C@H](C(=O)N[C@H]4C[C@@H]4c4ccccc4)C3)CC2)C[C@H]1C(=O)N[C@H]1C[C@@H]1c1ccccc1 [Compound 43, (3S,3′S,4S,4′S)-1,1′-(cis-1,4-Cyclohexane-dicarbonyl)bis(N^3,N^4-bis((1S,2R)-2-phenylcyclopropyl)-pyrrolidine-3,4-dicarboxamide)]
EC50 ([1]; Homo sapiens, THP-1, Table 1, TNF-α release from human THP-1 cells, read-out: EC50 (nM) (THP-1)): > 5000 nM
EC50 ([2]; Macrophage, Table 1, TNF-α release from mouse macrophages, read-out: EC50 (nM) (mouse)): > 5000 nM

Compound: O=C(N[C@H]1C[C@@H]1c1ccccc1)[C@H]1CN(C(=O)c2ccc(C(=O)N3C[C@@H](C(=O)N[C@H]4C[C@@H]4c4ccccc4)[C@H](C(=O)N[C@H]4C[C@@H]4c4ccccc4)C3)cc2)C[C@@H]1C(=O)N[C@H]1C[C@@H]1c1ccccc1 [Compound 22, (3S,4S)-1-(4-((3R,4R)-3,4-Bis(((1S,2R)-2-phenylcyclopropyl)carbamoyl)pyrrolidine-1-carbonyl)-benzoyl)—N^3,N^4-bis((1S,2R)-2-phenylcyclopropyl)-pyrrolidine-3,4-dicarboxamide]
EC50 [1, 9]: 3 nM
EC50 [2, 10]: 150 nM

Compound: O=C(N[C@H]1C[C@@H]1c1ccccc1)[C@@H]1CN(C(=O)c2ccc(C(=O)N3C[C@@H](C(=O)N[C@H]4C[C@@H]4c4ccccc4)[C@H](C(=O)N[C@H]4C[C@@H]4c4ccccc4)C3)c3ccccc23)C[C@H]1C(=O)N[C@H]1C[C@@H]1c1ccccc1 [Compound 45, (3S,3′S,4S,4′S)-1,1′-(Naphthalene-1,4-dicarbonyl)bis(N^3,N^4-bis((1S,2R)-2-phenylcyclopropyl)-pyrrolidine-3,4-dicarboxamide)]
EC50 ([1]; Homo sapiens, THP-1, Table 2, TNF-α release from human THP-1 cells, read-out: EC50 (nM) (THP-1)): > 5000 nM
EC50 ([2]; Macrophage, Table 2, TNF-α release from mouse macrophages, read-out: EC50 (nM) (mouse)): > 5000 nM

Compound: CCCCCCCCCCCCCCNC(=O)[C@@H]1CCN(C(=O)c2ccc(C(=O)N3C[C@@H](C(=O)N[C@H]4C[C@@H]4c4ccccc4)[C@H](C(=O)N[C@H]4C[C@@H]4c4ccccc4)C3)cc2)C1 [Compound 126, (3S,4S)—N^3,N^4-Bis((1S,2R)-2-phenylcyclopropyl)-1-(4-((R)-3-(tetradecylcarbamoyl)pyrrolidine-1-carbonyl)benzoyl)pyrrolidine-3,4-dicarboxamide]
EC50 [1, 3]: 2 nM
EC50 [2, 4]: 260 nM

Compound: Cc1cc(C(=O)N2C[C@@H](C(=O)N[C@H]3C[C@@H]3c3ccccc3)[C@H](C(=O)N[C@H]3C[C@@H]3c3ccccc3)C2)c(C)cc1C(=O)N1C[C@@H](C(=O)N[C@H]2C[C@@H]2c2ccccc2)[C@H](C(=O)N[C@H]2C[C@@H]2c2ccccc2)C1 [Compound 63, (3S,3′S,4S,4′S)-1,1′-(2,5-Dimethylterephthaloyl)-bis(N^3,N^4-bis((1S,2R)-2-phenylcyclopropyl)pyrrolidine-3,4-dicarboxamide)]
EC50 [1, 5]: > 5000 nM
EC50 [2, 6]: > 5000 nM

Compound: O=C(N[C@H]1C[C@@H]1c1ccccc1)[C@@H]1CN(C(=O)/C=C/C=C/C(=O)N2C[C@@H](C(=O)N[C@H]3C[C@@H]3c3ccccc3)[C@H](C(=O)N[C@H]3C[C@@H]3c3ccccc3)C2)C[C@H]1C(=O)N[C@H]1C[C@@H]1c1ccccc1 [Compound 52, (3S,3′S,4S,4′S)-1,1′-((2E,4E)-Hexa-2,4-dienedioyl)-bis(N^3,N^4-bis((1S,2R)-2-phenylcyclopropyl)-pyrrolidine-3,4-dicarboxamide)]
EC50 [1, 5]: > 5000 nM
EC50 [2, 6]: > 5000 nM

Next, values leading:

EC50 [1, 7]: > 5000 nM
EC50 [2, 8]: > 5000 nM
Compound: O=C(NCCc1ccc(F)cc1)[C@@H]1CN(C(=O)[C@H]2CC[C@@H](C(=O)N3C[C@@H](C(=O)NCCc4ccc(F)cc4)[C@H](C(=O)NCCc4ccc(F)cc4)C3)CC2)C[C@H]1C(=O)NCCc1ccc(F)cc1 [Compound 108, (3S,3′S,4S,4′S)-1,1′-((1R,4R)-Cyclohexane-1,4-dicarbonyl)bis(N^3,N^4-bis(4-fluorophenethyl)-pyrrolidine-3,4-dicarboxamide)]

EC50 [1, 9]: 6 nM
EC50 [2, 10]: > 5000 nM
Compound: O=C(N[C@H]1C[C@@H]1c1ccccc1)[C@@H]1CN(C(=O)c2ccc(C(=O)N3C[C@@H](C(=O)N[C@@H]4C[C@H]4c4ccccc4)[C@H](C(=O)N[C@@H]4C[C@H]4c4ccccc4)C3)cc2)C[C@H]1C(=O)N[C@H]1C[C@@H]1c1ccccc1 [Compound 25, (3S,4S)-1-(4-((3S,4S)-3,4-Bis(((1R,2S)-2-phenylcyclopropyl)carbamoyl)-pyrrolidine-1-carbonyl)-benzoyl)—N^3,N^4-bis((1S,2R)-2-phenylcyclopropyl)-pyrrolidine-3,4-dicarboxamide]

EC50 [1, 9]: > 5000 nM
EC50 [2, 10]: > 5000 nM
Compound: O=C(N[C@H]1C[C@@H]1c1ccccc1)[C@H]1CN(C(=O)c2ccc(C(=O)N3C[C@H](C(=O)N[C@H]4C[C@@H]4c4ccccc4)[C@@H](C(=O)N[C@H]4C[C@@H]4c4ccccc4)C3)cc2)C[C@@H]1C(=O)N[C@H]1C[C@@H]1c1ccccc1 [Compound 19, (3R,3′R,4R,4′R)-1,1′-Terephthaloylbis(N^3,N^4-bis((1S,2R)-2-phenylcyclopropyl)pyrrolidine-3,4-dicarboxamide)]

EC50 ([1]; Table 7, TNF-α release from human THP-1 cells, read-out: EC50 (nM) (THP-1)): > 5000 nM
EC50 ([2]; Table 7, TNF-α release from mouse macrophages, read-out: EC50 (nM) (mouse)): > 5000 nM
Compound: O=C(NCCc1ccc(F)cc1)C1CN(C(=O)COCC(=O)N2CC(C(=O)NCCc3ccc(F)cc3)C(C(=O)NCCc3ccc(F)cc3)C2)CC1C(=O)NCCc1ccc(F)cc1 [Compound 105, (3S,3′S,4S,4′S)-1,1′-(2,2′-Oxybis(acetyl))bis-(N^3,N^4-bis(4-fluorophenethyl)pyrrolidine-3,4-dicarboxamide)]

EC50 [1, 7]: > 5000 nM
EC50 [2, 8]: > 5000 nM
Compound: O=C(NCCc1ccc(F)cc1)[C@@H]1CN(C(=O)c2ccc3cc(C(=O)N4C[C@@H](C(=O)NCCc5ccc(F)cc5)[C@H](C(=O)NCCc5ccc(F)cc5)C4)ccc3c2)C[C@H]1C(=O)NCCc1ccc(F)cc1 [Compound 109, (3S,3′S,4S,4′S)-1,1′-(Naphthalene-2,6-dicarbonyl)-bis(N^3,N^4-bis(4-fluorophenethyl)-pyrrolidine-3,4-dicarboxamide)]

EC50 ([1]; Homo sapiens, THP-1, running text, read-out: EC50, stimulated release of TNF-α from differentiated human THP-1 cells): 0.13 nM
EC50 ([2]; Mus musculus, Macrophage, read-out: EC50, stimulated release of TNF-α from mouse macrophages): 1.2 nM
Compound: O=C(NC1C[C@@H]1c1ccc(F)cc1)[C@@H]1CN(C(=O)c2ccc(C(=O)N3C[C@@H](C(=O)NC4C[C@@H]4c4ccc(F)cc4)[C@H](C(=O)NC4C[C@@H]4c4ccc(F)cc4)C3)cc2)C[C@H]1C(=O)NC1C[C@@H]1c1ccc(F)cc1 (stereo partly drawn) [Compound 118, (3S,3′S,4S,4′S)-1,1′-Terephthaloyl-bis(N^3,N^4-bis-((1S,2R)-2-(4-fluorophenyl)cyclopropyl)pyrrolidine-3,4-dicarboxamide)]

EC50 [1, 7]: 130 nM
EC50 [2, 8]: > 5000 nM
Compound: O=C(NCCc1ccc(F)cc1)[C@@H]1CN(C(=O)c2ccc(C(=O)N3C[C@@H](C(=O)NCCc4ccc(F)cc4)[C@H](C(=O)NCCc4ccc(F)cc4)C3)c(O)c2)C[C@H]1C(=O)NCCc1ccc(F)cc1 [Compound 110, (3S,3′S,4S,4′S)-1,1′-(2-Hydroxy-terephthaloyl)-bis(N^3,N^4-bis(4-fluorophenethyl)-pyrrolidine-3,4-dicarboxamide)]

Source: patent US11040959B2, “Diprovocims: a new and potent class of TLR agonists” (The Scripps Research Institute, priority 2016, dated 2021)
